Reference: ChEMBL document CHEMBL1201862, “PubChem BioAssay data set” (2004)
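Briefly, cells in 96-well plates were exposed to five compound concentrations for 48 h, and endpoints were estimated by linear interpolation. Here, GI50 denotes the concentration required for 50% inhibition of growth.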 The source made the active and inactive calls. Cut-off read from the data, not from the text of the source: active = GI50 up to about 1.1 µM and inactive = higher.

What was measured:
Experiment in all cases: NCI-60 cell line screen, 48 h
MOLT-4 = test system: MOLT-4
CCRF-CEM = test system: CCRF-CEM
786-0 = test system: 786-0
OVCAR-3 = test system: OVCAR-3
EKVX = test system: EKVX
IGROV-1 = test system: IGROV-1
SK-MEL-28 = test system: SK-MEL-28
ACHN = test system: ACHN
K562 = test system: K562
KM12 = test system: KM12
SNB-19 = test system: SNB-19
SNB-75 = test system: SNB-75
RPMI-8226 = test system: RPMI-8226
T47D = test system: T47D
HL-60 = test system: HL-60
NCI-H522 = test system: NCI-H522
OVCAR-8 = test system: OVCAR-8
RXF 393 = test system: RXF 393
UO-31 = test system: UO-31
NCI-H23 = test system: NCI-H23
SN12C = test system: SN12C
HCT-15 = test system: HCT-15
A498 = test system: A498
SK-OV-3 = test system: SK-OV-3
SF-539 = test system: SF-539
NCI-H460 = test system: NCI-H460
HT-29 = test system: HT-29
HOP-62 = test system: HOP-62
DU-145 = test system: DU-145
BT-549 = test system: BT-549
HCT-116 = test system: HCT-116
A549 = test system: A549
SF-268 = test system: SF-268
TK-10 = test system: TK-10
MCF7 = test system: MCF7
UACC-62 = test system: UACC-62
CAKI-1 = test system: CAKI-1
HOP-92 = test system: HOP-92
SK-MEL-5 = test system: SK-MEL-5
M14 = test system: M14
SF-295 = test system: SF-295
NCI/ADR-RES = test system: NCI/ADR-RES
LOX IMVI = test system: LOX IMVI
OVCAR-5 = test system: OVCAR-5
PC-3 = test system: PC-3
COLO 205 = test system: COLO 205
SW-620 = test system: SW-620
SR = test system: SR
MDA-N = test system: MDA-N
Malme-3M = test system: Malme-3M
UACC-257 = test system: UACC-257
MDA-MB-435 = test system: MDA-MB-435
Hs-578T = test system: Hs-578T
MDA-MB-231 = test system: MDA-MB-231
NCI-H226 = test system: NCI-H226
HCC 2998 = test system: HCC 2998
U-251 = test system: U-251
SK-MEL-2 = test system: SK-MEL-2

CCOC(=O)c1nc2cc(C(F)(F)F)ccc2nc1Nc1cc(OC)c(OC)c(OC)c1
GI50 (MOLT-4): > 100 µM (inactive)
GI50 (CCRF-CEM): > 100 µM (inactive)
GI50 (786-0): > 100 µM (inactive)
GI50 (OVCAR-3): > 100 µM (inactive)
GI50 (EKVX): > 100 µM (inactive)
GI50 (IGROV-1): > 100 µM (inactive)
GI50 (SK-MEL-28): > 100 µM (inactive)
GI50 (ACHN): > 100 µM (inactive)
GI50 (K562): > 100 µM (inactive)
GI50 (KM12): > 100 µM (inactive)
GI50 (SNB-19): > 100 µM (inactive)
GI50 (SNB-75): > 100 µM (inactive)
GI50 (RPMI-8226): > 100 µM (inactive)
GI50 (T47D): > 100 µM (inactive)
GI50 (HL-60): > 100 µM (inactive)
GI50 (NCI-H522): > 100 µM (inactive)
GI50 (OVCAR-8): > 100 µM (inactive)
GI50 (RXF 393): > 100 µM (inactive)
GI50 (UO-31): > 100 µM (inactive)
GI50 (NCI-H23): > 100 µM (inactive)
GI50 (SN12C): > 100 µM (inactive)
GI50 (HCT-15): > 100 µM
GI50 (A498): > 100 µM (inactive)
GI50 (SK-OV-3): > 100 µM (inactive)
GI50 (SF-539): > 100 µM (inactive)
GI50 (NCI-H460): > 100 µM (inactive)
GI50 (HT-29): > 100 µM (inactive)
GI50 (HOP-62): > 100 µM (inactive)
GI50 (DU-145): > 100 µM (inactive)
GI50 (BT-549): > 100 µM (inactive)
GI50 (HCT-116): > 100 µM (inactive)
GI50 (A549): > 100 µM (inactive)
GI50 (SF-268): > 100 µM (inactive)
GI50 (TK-10): > 100 µM (inactive)
GI50 (MCF7): > 100 µM (inactive)
GI50 (UACC-62): > 100 µM (inactive)
GI50 (CAKI-1): > 100 µM (inactive)
GI50 (HOP-92): > 100 µM (inactive)
GI50 (SK-MEL-5): > 100 µM (inactive)
GI50 (M14): > 100 µM (inactive)
GI50 (SF-295): > 100 µM (inactive)
GI50 (NCI/ADR-RES): > 100 µM (inactive)
GI50 (LOX IMVI): > 100 µM (inactive)
GI50 (OVCAR-5): > 100 µM (inactive)
GI50 (PC-3): > 100 µM (inactive)
GI50 (COLO 205): > 100 µM (inactive)
GI50 (SW-620): > 100 µM (inactive)
GI50 (SR): > 100 µM (inactive)
GI50 (MDA-N): > 100 µM (inactive)
GI50 (Malme-3M): > 100 µM (inactive)
GI50 (UACC-257): > 100 µM (inactive)
GI50 (MDA-MB-435): > 100 µM (inactive)
GI50 (Hs-578T): > 100 µM (inactive)
GI50 (MDA-MB-231): > 100 µM (inactive)
GI50 (NCI-H226): > 100 µM (inactive)
GI50 (HCC 2998): > 100 µM (inactive)
GI50 (U-251): > 100 µM (inactive)

O=C(CCc1ccc(O)c(O)c1)NCCc1cc(OCc2ccccc2)cc(OCc2ccccc2)c1
GI50 (MOLT-4): 2.52 µM (inactive)
GI50 (CCRF-CEM): 1.77 µM (inactive)
GI50 (786-0): 13.3 µM (inactive)
GI50 (OVCAR-3): 5.92 µM (inactive)
GI50 (EKVX): 13.1 µM (inactive)
GI50 (IGROV-1): 5.93 µM (inactive)
GI50 (SK-MEL-28): 10.8 µM (inactive)
GI50 (ACHN): 5.47 µM (inactive)
GI50 (K562): 5.92 µM (inactive)
GI50 (KM12): 8.99 µM (inactive)
GI50 (SNB-19): 3.71 µM (inactive)
GI50 (SNB-75): 4.98 µM (inactive)
GI50 (RPMI-8226): 5.27 µM (inactive)
GI50 (T47D): 16.4 µM (inactive)
GI50 (HL-60): 2.51 µM (inactive)
GI50 (NCI-H522): 1.79 µM (inactive)
GI50 (OVCAR-8): 13.6 µM (inactive)
GI50 (RXF 393): 10.1 µM (inactive)
GI50 (UO-31): 2.13 µM (inactive)
GI50 (NCI-H23): 14.1 µM (inactive)
GI50 (SN12C): 10.4 µM (inactive)
GI50 (HCT-15): 3.03 µM
GI50 (A498): 15.7 µM (inactive)
GI50 (SK-OV-3): 14 µM (inactive)
GI50 (SF-539): 11.7 µM (inactive)
GI50 (NCI-H460): 5.55 µM (inactive)
GI50 (HT-29): 10.1 µM (inactive)
GI50 (HOP-62): 13.1 µM (inactive)
GI50 (DU-145): 14.1 µM (inactive)
GI50 (BT-549): 6.07 µM (inactive)
GI50 (HCT-116): 11.8 µM (inactive)
GI50 (A549): 16.7 µM (inactive)
GI50 (SF-268): 8.45 µM (inactive)
GI50 (TK-10): 16.3 µM (inactive)
GI50 (MCF7): 12 µM (inactive)
GI50 (UACC-62): 14.9 µM (inactive)
GI50 (CAKI-1): 4.45 µM (inactive)
GI50 (HOP-92): 8.87 µM (inactive)
GI50 (SK-MEL-5): 12.2 µM (inactive)
GI50 (M14): 12.1 µM (inactive)
GI50 (SF-295): 18.1 µM (inactive)
GI50 (NCI/ADR-RES): 13.1 µM (inactive)
GI50 (LOX IMVI): 10.4 µM (inactive)
GI50 (OVCAR-5): 13.1 µM (inactive)
GI50 (PC-3): 8.09 µM (inactive)
GI50 (COLO 205): 2.81 µM (inactive)
GI50 (SK-MEL-2): 17.9 µM (inactive)
GI50 (SW-620): 7.1 µM (inactive)
GI50 (SR): 2.88 µM (inactive)
GI50 (MDA-N): 11 µM (inactive)
GI50 (UACC-257): 28.1 µM (inactive)
GI50 (MDA-MB-435): 12.2 µM (inactive)
GI50 (Hs-578T): 9.29 µM (inactive)
GI50 (MDA-MB-231): 16.6 µM (inactive)
GI50 (NCI-H226): 20.1 µM (inactive)
GI50 (HCC 2998): 9.86 µM (inactive)
GI50 (U-251): 5.77 µM (inactive)
